Where two headings read alike, the source gives them in different places.
Assays:
[1] = tested on: PBMC (peripheral blood monocyte); experiment: PBMC determination: cytokines in culture supernatant measured by HTRF; format: cell-based; conditions: human PBMC, 24 h
Method: Determination of PBMC (Peripheral Blood Monocyte) Cell Preparation, Separation and Culture
Human whole blood was collected from healthy volunteers using BD Vacutainer® Lithium Heparin Tubes. PBMCs were prepared using Ficoll separation medium (GE Healthcare) by SopMate™ (STEMCELL). The cell survival rate was over 85% as monitored by Countstar. PBMCs were cultured in RPMI 1640 (Gibco) 10% (v/v) FBS (Gibco), 1×MEM NEAA (Gibco), 1× GlutaMAX (Gibco), 1 mM sodium pyruvate (Gibco), 50 uM 2-mercaptoethanol (sigma), and 100 U/ml penicillin-streptomycin (Thermo fisher Scientific).
PBMCs were plated into 96-well plates (costar 3894) with a density of 2×10^5 cells/well. Then, TLR7/8 compound was added, and serial dilution was carried out at ten points. The final concentration in 0.1% DMSO/RPMI 1640 ranged from 1 nM to 10 μM. Then, the plates were incubated in 5% CO2 at 37° C. for 24 h.
HTRF (Homogeneous Time-Resolved Fluorescence)
After the specified time point, according to the manufacturers recommendations, the cytokines in the cell culture supernatant were measured by Human IL6 kit (cisbio) and Human TNF alpha kit (cisbio). The EC50 of each compound was determined by calculating the maximum activation percentage identified using Resiquimod or Motolimod.

[2] = biological target: T1, human TLR 8 protein in HEK-blue hTLR 8 tool cell line (Homo sapiens, UniProt Q9NR97); experiment: TLR8 stimulation determined by HEK-Blue Detection (NF-κB/SEAP reporter); format: cell-based; conditions: HEK-Blue hTLR8 cells, 16 h incubation, relative to maximum activation by Resiquimod or motolimod; read-out: EC50 (nmol)
T1 construct: expressed in transfected cells; host or cells: HEK293 (HEK-Blue hTLR8)
T1 sequence (Q9NR97 27-1041): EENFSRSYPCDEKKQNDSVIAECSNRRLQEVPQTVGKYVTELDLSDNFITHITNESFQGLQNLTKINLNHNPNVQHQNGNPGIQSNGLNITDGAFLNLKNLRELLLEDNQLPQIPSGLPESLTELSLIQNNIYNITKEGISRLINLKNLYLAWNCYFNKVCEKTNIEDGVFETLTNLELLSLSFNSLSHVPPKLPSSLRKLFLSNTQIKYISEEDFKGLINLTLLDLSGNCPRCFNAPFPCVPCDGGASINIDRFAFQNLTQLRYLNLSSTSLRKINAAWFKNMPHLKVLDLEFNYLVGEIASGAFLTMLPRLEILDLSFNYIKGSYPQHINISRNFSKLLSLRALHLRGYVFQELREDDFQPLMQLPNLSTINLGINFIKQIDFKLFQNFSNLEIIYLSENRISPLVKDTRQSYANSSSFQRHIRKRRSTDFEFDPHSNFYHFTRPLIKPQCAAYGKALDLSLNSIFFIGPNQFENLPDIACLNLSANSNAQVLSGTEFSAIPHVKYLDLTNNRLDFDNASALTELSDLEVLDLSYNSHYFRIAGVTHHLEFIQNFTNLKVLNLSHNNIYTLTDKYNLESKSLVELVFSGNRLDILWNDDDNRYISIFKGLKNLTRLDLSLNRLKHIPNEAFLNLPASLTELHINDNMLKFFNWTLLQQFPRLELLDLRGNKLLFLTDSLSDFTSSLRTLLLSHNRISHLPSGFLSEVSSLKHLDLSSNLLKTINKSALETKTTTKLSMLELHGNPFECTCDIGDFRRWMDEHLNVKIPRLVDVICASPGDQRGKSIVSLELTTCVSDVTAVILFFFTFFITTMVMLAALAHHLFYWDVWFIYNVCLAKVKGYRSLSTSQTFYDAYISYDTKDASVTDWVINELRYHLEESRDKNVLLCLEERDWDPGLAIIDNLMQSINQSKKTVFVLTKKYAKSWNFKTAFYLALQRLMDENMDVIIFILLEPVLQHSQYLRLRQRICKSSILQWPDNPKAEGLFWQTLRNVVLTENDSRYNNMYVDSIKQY
Text: TLR8 Stimulation Determined by HEK-Blue Detection
This assay was designed to study the stimulation of human TLR 8 protein in HEK-blue hTLR 8 tool cell line by monitoring the activation of NF-κB. HEK-blue hTLR8 cells were obtained by co-transfection of hTLR8 gene and optimized secretory embryonic alkaline phosphatase (SEAP) reporter gene into HEK293 cells. SEAP reporter gene was put under the control of […] minimal promoter fused with five NF-κB and AP-1-binding sites. NF-κB and AP-1 were activated by stimulation with TLR 8 ligand, thus inducing the expression of SEAP. The level of SEAP can be easily determined by HEK-Blue Detection (a cell culture medium that allows real-time detection of SEAP). HEK-Blue Detection comprises all nutrients needed for cell growth and specific SEAP color substrates. The hydrolysis of substrate by SEAP produces purple/blue color which can be measured by spectrophotometer.
When growing to 50-80% confluence, HEK-Blue hTLR7/8 cells were plated into 96-well plates (costar 3599) at a density of 40,000 cells/well. Then, the compound serially diluted at 10 points with a final concentration ranging from 1 nM to 10 μm in 0.1% DMSO/HEK-Blue Detection was added. The plates were then incubated in 5% CO2 at 37° C. for 16 h. Optical density at 620-655 nm was read on BMG PHERAstar FSX instrument. The EC50 of each compound was determined by calculating the maximum activation percentage identified using Resiquimod or motolimod.
The EC50 of the tested compound of the present invention is as follows.

[3] = Human IL6 kit (HTRF), read-out: IL6 (EC50)
[4] = Human TNF alpha kit (HTRF), read-out: TNF-alpha (EC50)

`CCC[C@H](C)Oc1nc(N)c2ncc(CC3CCNCC3)n2n1` [Compound B6, (S)-2-(pent-2-yloxy)-7-(piperidin-4-ylmethyl)imidazo[2,1-f][1,2,4]triazin-4-amine] gave an EC50 [1, 3] of 162 nM, an EC50 [1, 4] of 115 nM and an EC50 [2] of 8.2 nM.

For `CCC[C@H](C)Oc1nc(N)c2ncc(CC3CCN(CCN)CC3)n2n1` [Compound B38, (S)-7-((1-(2-aminomethyl)piperidin-4-yl)methyl)-2-(pent-2-yloxy)imidazo[2,1-f][1,2,4]triazin-4-amine], the EC50 [1, 3] was 28 nM, the EC50 [1, 4] was 39 nM and the EC50 [2] was 47 nM.

With `CCC[C@H](C)Oc1nc(N)c2ncc(C[C@H]3C[C@@H](N)C3)n2n1` [Compound B30, 7-(((1s,3S)-3-aminocyclobutyl)methyl)-2-(((S)-pent-2-yl)oxy)imidazo[2,1-f][1,2,4]triazin-4-amine] the EC50 [1, 3] was 85 nM, the EC50 [1, 4] was 153 nM and the EC50 [2] was 26 nM.

In the case of `CCC[C@@H](C)Oc1nc(N)c2ncc(CC3CCNCC3)n2n1` [Compound B7, (R)-2-(pent-2-yloxy)-7-(piperidin-4-ylmethyl)imidazo[2,1-f][1,2,4]triazin-4-amine], the EC50 [1, 3] is reported as > 10000 nM, the EC50 [1, 4] is reported as > 10000 nM and the EC50 [2] is reported as 1290 nM.

From patent publication US12590096B2, “Imidazo[2,1-f][1,2,4]triazin-4-amine as TLR8 agonists” (BeOne Medicines | GmbH, priority 2019, dated 2026)
